{
  "source": "patent US10369105B2",
  "about": "“Nanoparticulate compositions for targeted delivery of acid labile, lipophilic prodrugs of cancer chemotherapeutics and their preparation” (Veiled Therapeutics LLC, priority 2014, dated 2019)",
  "key": {"[1]": {"system": "human MDA-MB-231 mammary tumor xenografts", "assay": "MTD/tolerability and efficacy study ATL-2, IV Q1Dx5, tumored mice", "experimental": "(§1) MTD study consisted of two major phases:\n(§2) Material remaining from the dosing emulsion solutions was shipped back to Arbor Therapeutics after the end of the treatment phase. […] The assessment of returned material was carried out side by side with material retained.\n(§3) Paclitaxel was included as a reference compound. • Tumor Model:\n[…] All treatments were administered intravenously (IV) once a day for five consecutive days (Q1Dx5) beginning on Day 1.\n(§4) Animals in Group 5 (Emulsion control) were treated with a drug free formulation (injection volume of 0.21 mL/20 g of body weight)."}, "[2]": {"system": "human MDA-MB-231 mammary tumor xenografts", "assay": "Antitumor efficacy study ATL-3, IV Q1Dx5 and Q4Dx3", "format": "in vivo, human tumor in female athymic NCr-nu/nu mice", "conditions": "for complete tumor regressions: ten mice", "experimental": "Experiment ATL-3 was performed to evaluate the antitumor activity of the intravenous (IV) treatment with formulated ART-207 when administered on two different schedules to female, athymic NCr-nu/nu mice implanted subcutaneously (SC) with human MDA-MB-231 mammary tumor xenografts. Paclitaxel was included as a reference compound. • Tumor Model:\nIndividual tumors of 90 animals grew to 88-216 mg in weight (88-216 mm3 in size) on Day 10 after tumor fragments implantation, the day of treatment initiation. […] The time points are indicated starting from the first day of treatment with formulated ART-207, vehicle control and Paclitaxel. • Study Design: […]\nAnimals in Groups 2, 3, and 4 were treated with formulated ART-207 which was administered IV on a Q1Dx5 schedule starting on Day 0 (Days 0-4) at doses of 105.2, 78.9, and 52.6 mg/kg/injection, respectively. Animals in Group 5 (Emulsion control) were treated IV on Q1Dx5 schedule starting on Day 0 with a drug free formulation. […] Animals in Group 7 were treated with formulated ART-207 which was administered IV once every four days for a total of three injections (Q4Dx3) starting on Day 0 (Days 0, 4, and 8) at a dose of 78.9 mg/kg/injection. Animals in Group 8 (Emulsion control) were treated IV on a Q4Dx3 schedule starting on Day 0 with a drug free formulation. Animals in Group 9 were treated IV on a Q4Dx3 schedule starting on Day 0 with paclitaxel at a dose of 18.9 mg/kg/injection."}, "[3]": {"assay": "PK/PD study ATL-4: plasma and tissue concentrations after single IV injection, nontumored mice", "format": "in vivo, female athymic NCr-nu/nu mice", "conditions": "paclitaxel 18.9 mg/kg single IV", "experimental": "Tumor Model; Experiment ATL-4. Animals were nontumored.\nExperiment ATL-4: The study consisted of ten groups of three nontumored mice per group for a total of 30 mice on Day 1, one day before the treatment. All treatments were administered as a single IV injection on Day 2."}, "[4]": {"assay": "MTD/tolerability study ATL-1, IV Q1Dx5, nontumored mice", "experimental": "as §1, §2, §3\nThe studies ATL-1 and ATL-2 consisted each of six groups of five nontumored mice per group for a total of 30 mice on Day 1, the first day of treatment. All treatments were administered intravenously (IV) once a day for five consecutive days (Q1Dx5) beginning on Day 1.\nas §4"}, "[5]": {"conditions": "breast cancer patients; cited from earlier work"}, "[6]": {"conditions": "IV Q1Dx5, formulated ART-207 72.6, 47.1, 35.7 and 23.7 mg/kg/injection, paclitaxel 15 mg/kg/injection"}, "[7]": {"conditions": "Study # 1, tumor size 270 mg, Q1Dx5, dose 15 mpk"}, "[8]": {"conditions": "Study # 2, tumor size 150 mg, Q1Dx5, dose 15 mpk"}, "[9]": {"conditions": "paclitaxel 15 mg/kg/injection IV Q1Dx5 (Group 6)"}, "[10]": {"conditions": "paclitaxel 18.9 mg/kg/injection IV Q4Dx3 (Group 9)"}},
  "data": [
    {"compound": "CC(=O)O[C@H]1C(=O)[C@@]2(C)[C@H]([C@H](OC(=O)c3ccccc3)[C@]3(O)C[C@H](OC(=O)[C@H](O)[C@@H](NC(=O)c4ccccc4)c4ccccc4)C(C)=C1C3(C)C)[C@]1(OC(C)=O)CO[C@@H]1C[C@@H]2O", "note": "[Paclitaxel]", "values": [
      {"measurement": "maximum tolerated dose (MTD)", "setting": "[1]; IV Q1Dx5, tumored mice", "result": "below 15 mg/kg/injection"},
      {"measurement": "tolerability / deaths (in words)", "setting": "[1]; [6]", "result": "toxic"},
      {"measurement": "animals died before day 11", "setting": "[1]; Paclitaxel 15 mg/kg IV Q1Dx5, day 0 = first treatment", "result": "4 of 5"},
      {"measurement": "Survival rate (end of study)", "setting": "[1]; [7]", "result": 20, "unit": "%"},
      {"measurement": "Tumor free mice (end of study)", "setting": "[1]; [7]", "result": 0, "unit": "%"},
      {"measurement": "animals euthanized due to being moribund", "setting": "[1]; paclitaxel 15 mg/kg/injection IV Q1Dx5, Days 20 and 21", "result": "two"},
      {"measurement": "deaths", "setting": "[1]; paclitaxel 15 mg/kg/injection IV Q1Dx5, both deaths on Day 19", "result": "two out of five"},
      {"measurement": "tumor weight of the surviving animal", "setting": "[1]; paclitaxel 15 mg/kg/injection, Day 13", "result": 180, "unit": "mg"},
      {"measurement": "tumor weight of the surviving animal", "setting": "[1]; paclitaxel 15 mg/kg/injection, Day 47", "result": 32, "unit": "mg"},
      {"measurement": "Survival rate (end of study)", "setting": "[2]; [8]", "result": 40, "unit": "%"},
      {"measurement": "Tumor free mice (end of study)", "setting": "[2]; [8]", "result": 40, "unit": "%"},
      {"measurement": "animals tumor-free on Day 56", "setting": "[2]; [9]", "result": "four"},
      {"measurement": "median tumor growth delay", "setting": "[2]; [9]", "result": 31.8, "unit": "days"},
      {"measurement": "deaths", "setting": "[2]; paclitaxel 15 mg/kg/injection IV Q1Dx5 (Group 6), Day 2", "result": "one out of ten"},
      {"measurement": "animals euthanized due to ataxia", "setting": "[2]; paclitaxel 15 mg/kg/injection IV Q1Dx5 (Group 6), Day 12", "result": "One"},
      {"measurement": "complete tumor regressions", "setting": "[2]; [9]", "result": "five"},
      {"measurement": "tolerability / deaths (in words)", "setting": "[2]; [10]", "result": "tolerated without deaths or mean body weight loss"},
      {"measurement": "complete tumor regressions", "setting": "[2]; [10]", "result": "one"},
      {"measurement": "AUC(0-t)", "setting": "[3]; female, athymic NCr-nu/nu, mouse, plasma, read-out: AUClast for paclitaxel in plasma", "result": 37700, "unit": "ng·h/mL"},
      {"measurement": "half-life", "setting": "[3]; female, athymic NCr-nu/nu, mouse, plasma, read-out: apparent terminal elimination half-life of paclitaxel in plasma (converted)", "result": 1, "unit": "h"},
      {"measurement": "clearance", "setting": "[3]; female, athymic NCr-nu/nu, mouse, plasma, read-out: total body clearance of paclitaxel (converted)", "result": 8.33, "unit": "mL/min/kg"},
      {"measurement": "Vd", "setting": "[3]; female, athymic NCr-nu/nu, mouse, plasma, read-out: volume of distribution of paclitaxel at steady state", "result": 0.658, "unit": "L/kg"},
      {"measurement": "mean peak plasma concentration of paclitaxel", "setting": "[3]; at 5 minutes (0.083 hours)", "result": 32.9, "unit": "µg/mL"},
      {"measurement": "maximum tolerated dose (MTD)", "setting": "[4]; IV Q1Dx5, nontumored mice, no death or more than 20% body weight loss within 14 days of end of treatment", "result": "above 15 mg/kg/injection"},
      {"measurement": "tolerability / deaths (in words)", "setting": "[4]; [6]", "result": "tolerated without deaths"},
      {"measurement": "half-life (t1/2)", "setting": "[5]", "result": "3.5 ± 0.80", "unit": "h"}
    ]}
  ]
}
